{"source": "paper PMC3780389", "about": "(Experimental neurology, 2012)", "origin": "cited, not measured here", "key": {"3x-Tg AD mice": {"tested_on": "3x-Tg AD mice", "conditions": "ref Green, et al., 2008, Hempen and Brion, 1996"}, "hAPP Tg AD mice": {"tested_on": "hAPP Tg AD mice", "conditions": "chronic administration, ref Ricobaraza, et al., 2011"}, "[1]": {"tested_on": "APP23 transgenic mouse model of AD", "conditions": "ref Qing, et al., 2008"}}, "data": [{"molecule": "NC(=O)c1cccnc1", "note": "[nicotinamide]", "values": [{"measurement": "Thr231-phosphotau", "setting": "3x-Tg AD mice", "value": "selectively decreases"}, {"measurement": "level of acetylated α-tubulin", "setting": "3x-Tg AD mice", "value": "increases"}]}, {"molecule": "sodium 4-phenylbutyrate [sodium 4-phenylbutyrate (4-PBA)]", "values": [{"measurement": "Aβ levels", "setting": "hAPP Tg AD mice", "value": "decreased Aβ levels"}]}, {"molecule": "CCCC(CCC)C(=O)O", "note": "[Valproic acid]", "values": [{"measurement": "Aβ plaque number", "setting": "[1]", "value": "significantly reduce Aβ plaque number"}]}]}
